Key:
CXCR4 D187E = experiment: 12G5 antibody competition, 293T cells transfected with CXCR4 D187E; format: binding, human; conditions: IC50 on CXCR4 D187E relative to wt
Procedure: (§1) Fig. 4 The interactions of EPI-X4 and the EPI-X4 derivatives WSC02 and JM#21 with point-mutated CXCR4 were assessed by an antibody competition assay. Amino acid substitutions were introduced in the sequence of CXCR4 by site-directed mutagenesis, cloned into an IRES-eGFP expression vector, and transfected into 293 T cells. Afterward, cells were incubated with serially diluted EPI-X4 (a, b), WSC02 (c, d), or JM#21 (e, f) in presence of a constant concentration of CXCR4 specific antibody (clone 12G5). After 2 h, bound antibody was analyzed by flow cytometry. a, c, e) Representative dose-dependent replacement of 12G5 antibody by peptides. b, d, f) IC50 values were calculated by nonlinear regression. Shown are data derived from at least three individual experiments ± SEM. IC50 values were set to 1000 µM (EPI-X4 and WSC02) or 100 µM (JM#21) if the value exceeds the maximally used concentration. *p ≤ 0.05, ***p ≤ 0.001 (one-way ANOVA for comparison with wt). For IC50 values see Table 1. For all binding curves see also Fig. S8.
(§2) Mutated CXCR4 constructs were transfected into 293 T cells that have a very low endogenous expression level of wild-type CXCR4. Transfected cells were then analyzed for CXCR4 surface expression (Fig. S5a) and EPI-X4 binding using a flow cytometry-based antibody competition assay (Fig. S5b, c)[33]. […]

CXCR4 D97E = experiment: 12G5 antibody competition, 293T cells transfected with CXCR4 D97E; format: binding, human; conditions: IC50 on CXCR4 D97E relative to wt
Procedure: as §1, §2

CXCR4 L41A = experiment: 12G5 antibody competition, 293T cells transfected with CXCR4 L41A; format: binding, human; conditions: IC50 on CXCR4 L41A relative to wt
Procedure: as §1, §2

CXCR4 V112A = experiment: 12G5 antibody competition, 293T cells transfected with CXCR4 V112A; format: binding, human; conditions: IC50 on CXCR4 V112A relative to wt
Procedure: as §1, §2

CXCR4 D97E + V112L = experiment: 12G5 antibody competition, 293T cells transfected with CXCR4 D97E + V112L; format: binding, human; conditions: IC50 on CXCR4 D97E + V112L relative to wt
Procedure: as §1, §2

CXCR4 D97T = experiment: 12G5 antibody competition, 293T cells transfected with CXCR4 D97T; format: binding, human; conditions: IC50 on CXCR4 D97T relative to wt
Procedure: as §1, §2

[1] = system: CXCR4 D97E + V112A + L41A; experiment: 12G5 antibody competition, 293T cells transfected with CXCR4 D97E + V112A + L41A; format: binding, human; conditions: IC50 on CXCR4 D97E + V112A + L41A relative to wt
Procedure: as §1, §2

[2] = target: T1, C-X-C motif chemokine receptor 4 (CXCR4) on SupT1 cells (human (endogenous in SupT1), UniProt P61073 1-352); experiment: flow cytometry on cells; 12G5 antibody competition on SupT1 cells; peptides in PBS with APC-conjugated 12G5 at a concentration close to its EC50, 4 °C, 2 h; MFI normalized to PBS control; IC50 by nonlinear regression; conditions: one partner purified
T1 construct: CXCR4 as expressed on SupT1 cells; source: endogenous, on SupT1 cells
T1 sequence (P61073 whole entry): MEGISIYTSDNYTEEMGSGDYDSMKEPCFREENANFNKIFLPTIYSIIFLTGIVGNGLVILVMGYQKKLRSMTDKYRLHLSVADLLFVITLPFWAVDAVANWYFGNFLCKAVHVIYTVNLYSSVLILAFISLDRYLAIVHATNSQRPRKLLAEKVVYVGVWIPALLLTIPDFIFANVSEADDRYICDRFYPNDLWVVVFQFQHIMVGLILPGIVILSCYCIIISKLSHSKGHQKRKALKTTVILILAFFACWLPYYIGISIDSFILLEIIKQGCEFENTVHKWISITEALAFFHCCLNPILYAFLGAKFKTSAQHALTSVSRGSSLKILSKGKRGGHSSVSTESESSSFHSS

Question: With “IVRWSKKVPCVS [WSC02, first-generation C-terminally truncated 12-mer derivative of EPI-X4 with four substitutions]” as the molecule, how does the Fold change (CXCR4 D187E) read?
Answer: 0.4

Question: What about the Fold change (CXCR4 D97E) of the same molecule?
Answer: 8

Question: And the Fold change (CXCR4 L41A)?
Answer: 1.5

Question: What about the Fold change (CXCR4 V112A) of the same molecule?
Answer: 0.6

Question: And the Fold change (CXCR4 D97E + V112L)?
Answer: 1.8

Question: What about the Fold change (CXCR4 D97T) of the same molecule?
Answer: 31

Question: And the Fold change [1]?
Answer: 5

B1: EPI-X4 (Alb408-423) (peptide)
peptide: LVRYTKKVPQVSTPTL
notes: source: synthetic peptide (Fmoc solid-phase synthesis, HPLC-purified)
Question: For B1, which IC50 [2] is on record?
Answer: 2390 nM

Source: publication PMC8458281, “Computational modeling and experimental validation of the EPI-X4/CXCR4 complex allows rational design of small peptide antagonists” (Communications Biology, 2021)
